Patent US10710951B2, “Pharmaceutical composition containing verbenone derivative for treating or preventing neurodegenerative disease” (KOREA UNIVERSITY RESEARCH AND BUSINESS FOUNDATION, priority 2012, dated 2020)

Key:
cortical neurons [1] = assay: Oxygen-glucose deprivation (OGD)/reoxygenation neuronal injury, LDH release; type: cell-based; details: rat cortical neurons, FIG. 1
Description: Cortical neurons (5×10^5 cells/ml) were isolated from fetal SD rats (16-17 days). Specifically, brain cortex was cut, and cells were isolated from the tissue by repeated trituration using a Pasteur pipette in buffer (Hanks' Balanced Salt Solution, HBSS). The cell suspension (1.8×10^3 cells/mm^2) was dispensed on a plate pretreated with poly-D-lysine ([…])/laminin ([…]). The cells were placed in 10% FBS-containing NBM medium, and incubated in a […]/5% CO2 atmosphere at 37° C. After 15-16 days of the incubation, the experiment was performed.
In order to induce hypoxic-ischemic symptoms in vitro, the incubated cells were placed in an anoxic chamber (partial oxygen pressure <2 mmHg). The cells were incubated glucose-free DMEM while being bubbled with an anaerobic gas mixture (95% N2 and 5% CO2) for 30 minutes to remove residual oxygen, and were incubated at 37° C. for 90 minutes for oxygen deprivation. After 90 minutes, the exposed solution was replaced with 25 mmol/L glucose-containing DMEM medium to stop the OGD reaction, and the cells were restored to normal oxygen conditions. Control cells not exposed to OGD were incubated in glucose (25 mmol/L)-containing DMEM medium provided with an aerobic gas mixture (95% air and 5% CO2). The cells were treated with each sample 30 minutes before, and during the entire period of OGD/re-oxygenation.
In order to measure cell injury or cell death, the amount of LDH released into the medium was measured using a cell viability measurement kit (Sigma-Aldrich, St. Louis, Mo.). Cell viability was expressed as the percentage of LDH relative to the total cellular LDH level measured in sister cultures lysed by freezing-thawing after the experiment.

[2] = DPPH assay (ability to scavenge nitrogen radicals); set-up: DPPH assay % inhibition: concentration or dose not given beside the values
Description: The samples were mixed with DPPH (23.6 μg/ml, in ethanol), and incubated in dark at 37° C. for 30 minutes. The DPPH absorbance reduced by each sample was measured at 517 nm. Vitamin C (Sigma-Aldrich, St. Louis, Mo.) was used as a control, and the DPPH inhibition value (%) was calculated using the following equation: Scavenging activity (%)=[Absmax(Vit.C)−Abssample]/[Absmax(Vit.C)−Absmin(Vit.C)]×100. Equation 1
(§1) The antioxidant activities of the verbenone derivatives of the present invention were measured by the following two different chemical reactions: (1) a single electron transfer-based assay that is a […] [DPPH] assay that measures a decrease in DPPH acting as a free radical generator and a termination probe; and (2) a hydrogen atom transfer assay that is an oxygen radical absorbance capacity [[…]] assay that measures the competitive reaction kinetics of a peroxyl radical generator (AAPH; 2,2′-azobis-(2-methylpropionamide)-dihydrochloride) and each sample acting as an antioxidant for oxidizable fluorescent probe (fluorescein).

cortical neurons [3] = assay: Intracellular levels (DCF fluorescence) of reactive oxygen species after OGD/reoxygenation; type: cell-based, SD rats; details: FIG. 3
Description: In order to examine the direct radical scavenging activities of the samples, at 1 hour after reoxygenation, the cells were stained with the fluorescent probe H2DCF-DA (2,7-dihydroichlorofluorescein diacetate) that is widely used to measure intracellular oxidative stress. After 2 hours, the cells were washed in EBSS buffer (containing 25 mM glucose, 1.8 mM CaCal2, 1.2 mM MgSO4 and 2.5 mM probenecid (pH7.4)), and the fluorescence of DCF was measured with a fluorescence microplate reader (SpectraMax GeminiEM; Ex=485 nm, Em=530 nm) or a fluorescence microscope (DM IL HC Fluo, Leica, Wetzlar, Germany) equipped with a digital camera (DFC420C, Leica, Wetzlar Germany). The fluorescence intensity was compensated with autofluorescence (i.e., the fluorescence of cells not loaded with H2DCF-DA).

[4] = Oxygen radical absorbance capacity (ORAC) assay; set-up: ORAC assay TE25 (trolox equivalents): dose or concentration left out as unconfirmed
Description: An ORAC assay was performed as disclosed in the literature (Huang, D. et al., J. Agric. Food Chem., 53, 1841-56, 2005).
AAPH (60 mM) and fluorescein (50 nM) were prepared in buffer (75 mM phosphate buffer, pH7.4) without a sample or a sample or a standard (Trolox). Each of the samples and the standard was suspended in a solution of 7% RMCD (randomly methylated beta-cyclodextrin) in 50% acetone. RMCD was used to increase the solubility of oil-soluble samples. Each sample was sufficiently mixed with fluorescein solution (66 nM, 190 μl) by shaking for 5 seconds. After incubation at 37° C. for 10 minutes, AAPH (500 mM, 30 μl) was quickly added to each sample, and a decrease in the fluorescence was measured using a fluorescence microplate reader (Ex=485 nm, Em=530 nm; SpectraMax GeminiEM, Molecular Devices, Sunnyvale, Calif.) at 37° C. at 5-min intervals for 9 hours. To quantify the activity of scavenging peroxyl radicals, AUC (area-under-the-curve) was calculated according to the following equation 2, and net AUC was calculated according to the following equation 3, and the TE (trolox equivalents) of each sample was calculated according to the following equation 4 based on a standard curve of net AUC plotted according to an increase in trolox concentration. AUC=(0.5+f1/f0+f2/f0+f3/f0+ . . . +fn−2/f0+fn−1/f0+fn/f0)×5, Equation 2
wherein f0 is the first fluorescence at 0 min and time I. Net AUC=AUCsample−AUCblank. Equation 3 TE(trolox equivalents) of each sample=[netAUCsample […]]/[net AUCtrolox […]]. Equation 4
as §1

With COc1cc(C=CC2=CC(=O)[C@H]3C[C@@H]2C3(C)C)cc(O)c1O [Compound 3f, (1S,5R)-4-(3,4-dihydroxy-5-methoxystyryl)-6,6-dimethylbicyclo[3.1.1]hept-3-en-2-one] the “neuronal injury induced by OGD (LDH release)” value (cortical neurons [1]; OGD/reoxygenation, comparable to MK801) was “significantly reduced neuronal injury”, the cytotoxicity (cortical neurons [1]) was “showed no cytotoxicity” and the “DPPH scavenging activity (in words)” value ([2]; compared to vitamin C at the same concentration) was “stronger scavenging activity compared to vitamin C”. For the same compound, the “DPPH assay % inhibition” value ([2]; relative to vitamin C (Equation 1)) was 83.64 ± 6.19%, the “OGD-induced intracellular oxidative stress (DCF fluorescence)” value (cortical neurons [3]) was “reduced OGD-induced intracellular oxidative stress” and the “ORAC assay Net AUC” value [4] was 99.06 ± 37.80. For the same compound, the “ORAC assay TE25 (trolox equivalents)” value ([4]; net AUC sample / net AUC trolox) was 2.83 ± 0.22.
